We go through four compounds from ChEMBL document CHEMBL5154916, “Multiparameter Optimization of Naphthyridine Derivatives as Selective α5-GABAA Receptor Negative Allosteric Modulators” (J Med Chem, 2022).

The target of series [1] is T1, GABA-A receptor; alpha-5/beta-3/gamma-2 (Homo sapiens, UniProt P18507+P28472+P31644).
T1 sequence (P18507 whole entry): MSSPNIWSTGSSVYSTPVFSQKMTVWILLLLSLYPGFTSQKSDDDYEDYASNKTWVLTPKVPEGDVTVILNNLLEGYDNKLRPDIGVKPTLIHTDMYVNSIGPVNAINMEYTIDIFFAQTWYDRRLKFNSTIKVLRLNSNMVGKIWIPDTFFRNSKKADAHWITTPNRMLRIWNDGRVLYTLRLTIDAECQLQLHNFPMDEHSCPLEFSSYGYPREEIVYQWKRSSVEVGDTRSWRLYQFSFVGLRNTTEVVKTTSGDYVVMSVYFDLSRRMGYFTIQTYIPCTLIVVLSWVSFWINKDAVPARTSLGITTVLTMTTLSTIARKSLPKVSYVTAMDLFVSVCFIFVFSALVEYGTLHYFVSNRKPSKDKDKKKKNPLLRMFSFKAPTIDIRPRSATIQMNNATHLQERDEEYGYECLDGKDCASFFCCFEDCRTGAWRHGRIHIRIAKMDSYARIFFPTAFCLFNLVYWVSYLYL
T1 sequence (P28472 whole entry): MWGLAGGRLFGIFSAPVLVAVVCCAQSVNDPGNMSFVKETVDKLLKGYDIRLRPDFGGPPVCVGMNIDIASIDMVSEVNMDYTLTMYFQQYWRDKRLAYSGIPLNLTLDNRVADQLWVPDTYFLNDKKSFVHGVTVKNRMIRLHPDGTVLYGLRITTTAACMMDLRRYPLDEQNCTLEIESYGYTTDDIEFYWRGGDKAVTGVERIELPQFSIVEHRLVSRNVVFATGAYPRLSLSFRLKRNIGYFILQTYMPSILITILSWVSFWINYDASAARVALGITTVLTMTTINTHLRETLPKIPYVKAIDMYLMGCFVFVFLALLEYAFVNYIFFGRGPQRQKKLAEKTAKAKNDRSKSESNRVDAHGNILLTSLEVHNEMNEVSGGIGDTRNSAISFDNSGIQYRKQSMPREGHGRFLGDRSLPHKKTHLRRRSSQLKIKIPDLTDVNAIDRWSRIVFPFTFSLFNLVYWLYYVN
T1 sequence (P31644 whole entry): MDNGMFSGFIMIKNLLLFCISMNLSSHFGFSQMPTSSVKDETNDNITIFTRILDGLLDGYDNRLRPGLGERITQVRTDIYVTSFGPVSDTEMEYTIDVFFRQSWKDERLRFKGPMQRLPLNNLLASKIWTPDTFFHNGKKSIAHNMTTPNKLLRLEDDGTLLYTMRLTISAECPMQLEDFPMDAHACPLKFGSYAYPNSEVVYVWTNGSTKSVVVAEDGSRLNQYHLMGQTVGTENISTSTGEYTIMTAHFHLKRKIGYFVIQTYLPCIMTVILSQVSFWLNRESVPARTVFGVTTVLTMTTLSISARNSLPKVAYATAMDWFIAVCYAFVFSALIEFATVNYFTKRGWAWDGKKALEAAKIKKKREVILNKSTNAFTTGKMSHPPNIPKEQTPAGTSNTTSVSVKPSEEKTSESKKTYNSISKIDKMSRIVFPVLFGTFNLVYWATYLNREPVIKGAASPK
Put plainly: Displacement of [3H]Ro151788 from human recombinant alpha5beta3gamma2 GABAA receptor stably expressed in HEK293 cell membrane assessed as inhibition constant by radioligand binding assay. Type of series: cell membranes. (In general: Displacement assays read how much labelled ligand stays bound in the presence of the test substance.)

The target of series [2] is T2, GABA-A receptor; alpha-5/beta-3/gamma-2 (Homo sapiens) (UniProt P18507+P28472+P31644). Put plainly: Negative allosteric modulation activity at human recombinant alpha5beta3gamma2 GABAA receptor stably expressed in HEK293 cells assessed as modulation at alpha5 subunit at 1 uM by Patch clamp method. Type of series: cell-based. The conditions noted are these: filed as negative allosteric modulator. For orientation: In patch-clamp work, channel activity is measured electrically.

The target in series [3] is T2, GABA-A receptor; alpha-5/beta-3/gamma-2 (Homo sapiens). The series is described as follows: Negative allosteric modulation activity at human recombinant alpha5beta3gamma2 GABAA receptor stably expressed in HEK293 cells assessed as modulation at alpha5 subunit at 10 uM by Patch clamp method. Type of series: cell-based.
Series [4] has as its target GABA-A receptor; alpha-1/beta-3/gamma-2 (Homo sapiens) (UniProt P14867+P18507+P28472). Put plainly: Negative allosteric modulation activity at human recombinant alpha1beta3gamma2 GABAA receptor stably expressed in HEK293 cells assessed as modulation at alpha1 subunit at 10 uM by Patch clamp method. The conditions noted are these: filed as negative allosteric modulator. Type of series: cell-based.

For series [5], the target named is Voltage-gated inwardly rectifying potassium channel KCNH2 (Homo sapiens, UniProt Q12809). Put plainly: Inhibition of hERG expressed in CHO cells stably at -80 mV holding potential by automated patch clamp method. Type of series: toxicity, cell-based. (The hERG channel carries a current that helps repolarise heart muscle cells.)
The nature of series [6]: Metabolic stability in human liver microsomes assessed as intrinsic clearance at 2.5 uM. Type of series: ADME, Microsome. Particulars: read-out: CLH.
The nature of series [7]: Metabolic stability in Wistar rat liver microsomes assessed as intrinsic clearance at 2.5 uM. Particulars: read-out: CLH. In kind it is ADME, Microsome.
The nature of series [8]: Ratio of drug level in brain to plasma in Wistar rat at 3 mg/kg, po measured at 1.5 hr post dose. Type of series: ADME, organism-based. The conditions noted are these: brain and plasma, read-out: BPR.
The nature of series [9]: Passive permeability in human Caco-2 cells assessed as permeability damage ratio at 10 uM by HPLC-UV analysis. In kind it is ADME, cell-based. Particulars: caco-2, 10 µM.
Series [10] is described as follows: Apparent permeability in human Caco-2 cells at 10 uM by HPLC-UV analysis. Type of series: ADME, cell-based.
Series [11] in a line: Clearance in Wistar rat plasma at 1 mg/kg, iv by HPLC-MS/MS analysis. Type of series: ADME, organism-based.
Series [12] is described as follows: Volume of distribution in Wistar rat plasma at 1 mg/kg, iv by HPLC-MS/MS analysis. In kind it is ADME, organism-based.
Series [13] is described as follows: Half life in Wistar rat total plasma at 1 mg/kg, iv by HPLC-MS/MS analysis. In kind it is ADME, organism-based.
Series [14] can be described thus: Half life in Wistar rat total plasma at 1 mg/kg, po by HPLC-MS/MS analysis. Type of series: ADME, organism-based.
Series [15] is described as follows: Tmax in Wistar rat total plasma at 1 mg/kg, po by HPLC-MS/MS analysis. Type of series: ADME, organism-based.
Series [16] can be described thus: AUC (0 to infinity) in Wistar rat total plasma at 1 mg/kg, iv by HPLC-MS/MS analysis. Type of series: ADME, organism-based. Also on record: time infinity, dose 1 mg/kg, route iv.
A short description of series [17]: AUC (0 to infinity) in Wistar rat total plasma at 1 mg/kg, po by HPLC-MS/MS analysis. In kind it is ADME, organism-based. Also on record: time infinity, dose 1 mg/kg, route po.
A short description of series [18]: Cmax in Wistar rat total plasma at 1 mg/kg, po by HPLC-MS/MS analysis. In kind it is ADME, organism-based. Also noted: dose 1 mg/kg, route po.
A short description of series [19]: Bioavailability in Wistar rat total plasma at 1 mg/kg, iv by HPLC-MS/MS analysis. In kind it is ADME, organism-based.
Series [20] in a line: Ratio of drug level in brain to plasma in Wistar rat at 1 mg/kg, iv by HPLC-MS/MS analysis. In kind it is ADME, organism-based. Particulars: brain and plasma, read-out: BPR.
[21] abbreviates: filed as negative allosteric modulator.

Chain of Voltage-gated inwardly rectifying potassium channel KCNH2 (Q12809 whole entry): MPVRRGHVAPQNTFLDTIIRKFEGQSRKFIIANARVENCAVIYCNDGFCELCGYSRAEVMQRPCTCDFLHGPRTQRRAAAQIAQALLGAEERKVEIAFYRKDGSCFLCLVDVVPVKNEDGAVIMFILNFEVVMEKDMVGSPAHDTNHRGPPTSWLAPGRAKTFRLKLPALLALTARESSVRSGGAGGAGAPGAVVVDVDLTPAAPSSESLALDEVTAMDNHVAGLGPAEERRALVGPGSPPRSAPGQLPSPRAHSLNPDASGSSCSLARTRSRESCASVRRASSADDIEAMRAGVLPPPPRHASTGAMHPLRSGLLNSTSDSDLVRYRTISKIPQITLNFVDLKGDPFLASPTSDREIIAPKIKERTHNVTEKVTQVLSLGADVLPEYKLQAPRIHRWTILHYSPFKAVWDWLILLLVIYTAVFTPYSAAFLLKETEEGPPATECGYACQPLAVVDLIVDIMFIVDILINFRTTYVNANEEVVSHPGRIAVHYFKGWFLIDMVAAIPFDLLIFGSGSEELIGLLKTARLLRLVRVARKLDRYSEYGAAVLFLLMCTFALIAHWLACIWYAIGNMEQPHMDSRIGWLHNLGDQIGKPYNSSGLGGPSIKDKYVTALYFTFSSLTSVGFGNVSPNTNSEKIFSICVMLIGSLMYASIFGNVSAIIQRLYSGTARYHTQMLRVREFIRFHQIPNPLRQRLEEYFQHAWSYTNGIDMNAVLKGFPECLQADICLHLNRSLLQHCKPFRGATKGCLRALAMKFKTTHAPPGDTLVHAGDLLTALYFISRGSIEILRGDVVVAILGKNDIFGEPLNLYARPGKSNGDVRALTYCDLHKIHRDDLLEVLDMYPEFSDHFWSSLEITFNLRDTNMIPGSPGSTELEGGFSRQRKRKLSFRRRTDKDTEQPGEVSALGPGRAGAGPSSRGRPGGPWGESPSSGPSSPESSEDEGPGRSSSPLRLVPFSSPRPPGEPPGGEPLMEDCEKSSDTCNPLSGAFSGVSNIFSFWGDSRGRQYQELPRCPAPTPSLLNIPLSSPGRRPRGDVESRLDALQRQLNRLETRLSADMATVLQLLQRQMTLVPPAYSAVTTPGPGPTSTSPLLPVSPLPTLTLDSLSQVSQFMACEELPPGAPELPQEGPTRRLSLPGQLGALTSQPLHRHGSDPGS

As for `Cc1nnn(-c2ccc(F)cc2)c1COc1ccc2c(n1)CCN(C(=O)C1CCOC1)C2` (stereo not given), the Ki (as a rule, a measure of affinity in units of concentration, obtained from inhibition or displacement) in series [1] was determined as 42 nM. The Activity in series [2] is -34%; in [3] (setting [21]), -39%; in series [4], -7%. In addition, the IC50 – broadly, the concentration at which inhibition is half-maximal – in series [5] was determined as 30000 nM. The microsomal CLint at 2.5 µM came out at 13 µL/min/mg in [6] and 29 µL/min/mg in series [7]. Also, the Kp at 1.5 h in [8] worked out at 0.21. For the same compound, the Ratio in series [9] came to 1.1. Also, in series [10], the apparent permeability (Papp) (in general, a coefficient for how fast a substance crosses the barrier) at 10 µM came to 44.6 ×10⁻⁶ cm/s.
On to `CC(=O)N1Cc2ccc(OCc3c(C)nnn3-c3ccc(F)cc3)nc2C1`, for which the Ki in [1] was found to be 3.2 nM. Besides, the figures for the Activity in series [2], in series [3] (setting [21]) and in [4] were -19%, -30% and -7%, respectively. This compound registered an IC50 in series [5] of 30000 nM. Also, the microsomal CLint at 2.5 µM in series [6] is 9 µL/min/mg; in series [7], 25 µL/min/mg. Further, the Kp at 1.5 h in series [8] turned out to be 0.38. Moreover, in [9], the Ratio was 0.9. The clearance (usually a measure of how efficiently the substance is removed, as volume per time) in series [11] was 55.5 mL/min/kg. The Vd (commonly the apparent volume that relates the amount in the body to the concentration in plasma or blood) in [12] was determined as 1.09 L/kg. In addition, the half-life (commonly the time needed for the level to fall by half in the phase considered) is 13.8 min in series [13] and 51.6 min in [14]. Also, the Tmax (commonly the time at which the peak concentration occurs) in series [15] was 30 min. Moreover, the figures for the AUC(0-inf) in [16] and in series [17] were 301 ng·h/mL and 43.7 ng·h/mL, respectively. For the same compound, the Cmax (usually the highest concentration seen after dosing) in [18] turned out to be 47.6 ng/mL. Further, the bioavailability – broadly, the share of a dose that reaches the circulation, judged against a reference dose that is usually intravenous – in series [19] stood at 14.5%. In addition, the Kp in series [20] came out at 0.38. Moreover, the Papp at 10 µM in [10] came to 54.5 ×10⁻⁶ cm/s.
`Cc1nnn(-c2ccc(F)cc2)c1COc1ccc2c(n1)CCN(CCS(C)(=O)=O)C2=O`: the Ki in [1] was 55 nM. Moreover, the Activity in series [2] is -41%; in series [3], -51%; in [4] it was -16%. The compound further had an IC50 in series [5] of 30000 nM. The values for the microsomal CLint at 2.5 µM in series [6] and in series [7] were 1 µL/min/mg and 9 µL/min/mg, respectively. For the same compound, the Kp at 1.5 h in series [8] was determined as 0.02. Also, the Ratio in series [9] is 3.2. Further, the Papp at 10 µM in series [10] amounted to 22 ×10⁻⁶ cm/s.
Turning to `CC(=O)N1CCc2nc(OCc3c(C)nnn3-c3ccc(F)cc3)ccc2C1`, the Ki in [1] is 28 nM. Moreover, the figures for the Activity in [2], in [3] (setting [21]) and in [4] were -25%, -36% and 0%, respectively. In series [5], this compound came in with an IC50 greater than 30000 nM. Besides, the microsomal CLint at 2.5 µM in [6] is 18 µL/min/mg; in [7], 26 µL/min/mg. For the same compound, in series [8], the Kp at 1.5 h amounted to 0.45. In series [9], the Ratio is listed as 0.74. The same compound gave a clearance in series [11] of 77.9 mL/min/kg. In [12], this compound registered a Vd of 1.36 L/kg. For the same compound, the half-life in series [13] is 12 min; in series [14], 42.6 min. In addition, in [15], the Tmax came to 30 min. Moreover, the AUC(0-inf) (commonly the area under the concentration-time curve extrapolated to infinity) worked out at 218 ng·h/mL in series [16] and 20.4 ng·h/mL in [17]. In [18], this compound yielded a Cmax of 21.4 ng/mL. For the same compound, in series [19], the bioavailability was determined as 9.4%. Moreover, in [20], the Kp is 0.46. The Papp at 10 µM in series [10] came to 52.8 ×10⁻⁶ cm/s.
